# Laboratory results taken from patent US8952024B2, “Herbicidal pyrimidone derivatives” (E I du Pont de Nemours and Company, priority 2009, dated 2015).
# Legend:
# Format in all cases: in vivo
# [1] = system: ducksalad (Heteranthera limosa); experiment: Test B flooded paddy test; conditions: for Plant response rating, Flood, Ducksalad: 250 g ai/ha, flooded paddy test, visual rating on 0 to 100 scale (0 no effect, 100 complete control) after 13 to 15 days; for Plant response rating, Ducksalad: Flood (flooded paddy test), 13 to 15 days; for Ducksalad plant response rating: Flood, 31 g ai/ha, scale 0 to 100 (0 no effect, 100 complete control)
# Outline: (§1)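 Each compound is added to standing floodwater (3 cm above soil, maintained) in pots of 2-leaf-stage plants; greenhouse exposure lasts 13–15 d before visual comparison with controls on a 0–100 control scale.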
# [2] = system: umbrella sedge (Cyperus difformis); experiment: Test B flooded paddy test; conditions: for Plant response rating, Flood, Sedge, Umbrella: 250 g ai/ha, flooded paddy test, visual rating on 0 to 100 scale (0 no effect, 100 complete control) after 13 to 15 days; for Plant response rating, Sedge, Umbrella: Flood (flooded paddy test), 13 to 15 days; for Sedge, Umbrella plant response rating: Flood, 31 g ai/ha, scale 0 to 100 (0 no effect, 100 complete control)
# Outline: as §1
# [3] = system: rice (Oryza sativa); experiment: Test B flooded paddy test; conditions: for Plant response rating, Flood, Rice: 250 g ai/ha, flooded paddy test, visual rating on 0 to 100 scale (0 no effect, 100 complete control) after 13 to 15 days; for Plant response rating, Rice: Flood (flooded paddy test), 13 to 15 days; for Rice plant response rating: Flood, 31 g ai/ha, scale 0 to 100 (0 no effect, 100 complete control)
# Outline: as §1
# [4] = system: barnyardgrass (Echinochloa crus-galli); experiment: Test B flooded paddy test; conditions: for Plant response rating, Flood, Barnyardgrass: 250 g ai/ha, flooded paddy test, visual rating on 0 to 100 scale (0 no effect, 100 complete control) after 13 to 15 days; for Plant response rating, Barnyardgrass: Flood (flooded paddy test), 13 to 15 days; for Barnyardgrass plant response rating: Flood, 31 g ai/ha, scale 0 to 100 (0 no effect, 100 complete control)
# Outline: as §1
# [5] = system: corn (Zea mays); experiment: Test A pre-/postemergence plant response
# Outline: (§2)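 Visually rated 0–100 injury (100 = complete control) versus untreated plants, ~10 days in greenhouse. Application pre- (soil spray, loam/sand) and postemergence (2–10 cm, 1–2 leaf stage), same timepoint.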
# [6] = system: wheat (Triticum aestivum); experiment: Test A pre-/postemergence plant response
# Outline: as §2
# [7] = system: velvetleaf (Abutilon theophrasti); experiment: Test A pre-/postemergence plant response
# Outline: as §2
# [8] = system: pigweed (Amaranthus retroflexus); experiment: Test A pre-/postemergence plant response
# Outline: as §2
# [9] = system: large crabgrass (Digitaria sanguinalis); experiment: Test A pre-/postemergence plant response
# Outline: as §2
# [10] = system: barnyardgrass (Echinochloa crus-galli); experiment: Test A pre-/postemergence plant response
# Outline: as §2
# [11] = system: morningglory (Ipomoea spp.); experiment: Test A pre-/postemergence plant response
# Outline: as §2
# [12] = system: giant foxtail (Setaria faberii); experiment: Test A pre-/postemergence plant response
# Outline: as §2
# [13] = 62 g ai/ha, scale of 0 to 100 where 0 is no effect and 100 is complete control
# [14] = 125 g ai/ha, scale 0 to 100, 0 is no effect, 100 is complete control
# [15] = Postemergence, 125 g ai/ha, 0 to 100 scale where 0 is no effect and 100 is complete control
# [16] = Postemergence, 500 g ai/ha, 0 to 100 scale, 0 = no effect, 100 = complete control, approx. ten days
# [17] = Preemergence, 125 g ai/ha, 0 to 100 scale, 0 = no effect, 100 = complete control
# [18] = Preemergence, 500 g ai/ha, visual injury, 0 to 100 scale (0 no effect, 100 complete control), approx. ten days
# [19] = Preemergence, 500 g ai/ha, 0 to 100 scale, 0 = no effect, 100 = complete control
# [20] = Postemergence, 500 g ai/ha, visual injury, 0 to 100 scale (0 no effect, 100 complete control), approx. ten days
smiles,measurement,setting,value
Cc1ccc(Cl)cc1-n1c(-c2cccc(Br)c2)ncc(C(=O)C2=C(O)CCCC2=O)c1=O [Compound 144],"Plant response rating, Flood, Ducksalad",[1],100
same,"Plant response rating, Ducksalad",[1]; [13],60
same,"Plant response rating, Ducksalad",[1]; [14],75
same,Ducksalad plant response rating,[1],50
same,"Plant response rating, Flood, Sedge, Umbrella",[2],100
same,"Plant response rating, Sedge, Umbrella",[2]; [13],65
same,"Plant response rating, Sedge, Umbrella",[2]; [14],95
same,"Sedge, Umbrella plant response rating",[2],50
same,"Plant response rating, Flood, Rice",[3],25
same,"Plant response rating, Rice",[3]; [13],20
same,"Plant response rating, Rice",[3]; [14],20
same,Rice plant response rating,[3],15
same,"Plant response rating, Flood, Barnyardgrass",[4],20
same,"Plant response rating, Barnyardgrass",[4]; [13],0
same,"Plant response rating, Barnyardgrass",[4]; [14],0
same,Barnyardgrass plant response rating,[4],0
same,"Plant response rating, Corn",[5]; [15],0
same,"Plant response rating, Corn",[5]; [16],30
same,"Plant response rating, Corn",[5]; [17],0
same,"Plant response rating, Corn",[5]; [18],0
same,"Plant response rating, Wheat",[6]; [15],0
same,"Plant response rating, Wheat",[6]; [16],0
same,"Plant response rating, Wheat",[6]; [17],0
same,"Plant response rating, Wheat",[6]; [19],0
same,"Plant response rating, Velvetleaf",[7]; [15],100
same,"Plant response rating, Velvetleaf",[7]; [16],100
same,"Plant response rating, Velvetleaf",[7]; [17],20
same,"Plant response rating, Velvetleaf",[7]; [19],70
same,"Plant response rating, Pigweed",[8]; [15],80
same,"Plant response rating, Pigweed",[8]; [16],90
same,"Plant response rating, Pigweed",[8]; [17],0
same,"Plant response rating, Pigweed",[8]; [18],90
same,"Plant response rating, Crabgrass, Large",[9]; [15],50
same,"Plant response rating, Crabgrass, Large",[9]; [16],90
same,"Plant response rating, Crabgrass, Large",[9]; [17],10
same,"Plant response rating, Crabgrass, Large",[9]; [18],30
same,"Plant response rating, Barnyardgrass",[10]; [15],70
same,"Plant response rating, Barnyardgrass",[10]; [16],100
same,"Plant response rating, Barnyardgrass",[10]; [17],0
same,"Plant response rating, Barnyardgrass",[10]; [18],20
same,"Plant response rating, Morningglory",[11]; [15],30
same,"Plant response rating, Morningglory",[11]; [16],70
same,"Plant response rating, Morningglory",[11]; [17],0
same,"Plant response rating, Morningglory",[11]; [18],10
same,"Plant response rating, Foxtail, Giant",[12]; [15],40
same,"Plant response rating, Foxtail, Giant",[12]; [16],90
same,"Plant response rating, Foxtail, Giant",[12]; [17],0
same,"Plant response rating, Foxtail, Giant",[12]; [18],10
CCn1c(-c2cccc(Cl)c2)ncc(C(=O)C2=C(O)CCCC2=O)c1=O [Compound 145],"Plant response rating, Flood, Ducksalad",[1],80
same,"Plant response rating, Ducksalad",[1]; [13],80
same,"Plant response rating, Ducksalad",[1]; [14],80
same,Ducksalad plant response rating,[1],80
same,"Plant response rating, Flood, Sedge, Umbrella",[2],80
same,"Plant response rating, Sedge, Umbrella",[2]; [13],0
same,"Plant response rating, Sedge, Umbrella",[2]; [14],60
same,"Sedge, Umbrella plant response rating",[2],0
same,"Plant response rating, Flood, Rice",[3],0
same,"Plant response rating, Rice",[3]; [13],0
same,"Plant response rating, Rice",[3]; [14],0
same,Rice plant response rating,[3],0
same,"Plant response rating, Flood, Barnyardgrass",[4],25
same,"Plant response rating, Barnyardgrass",[4]; [13],0
same,"Plant response rating, Barnyardgrass",[4]; [14],0
same,Barnyardgrass plant response rating,[4],0
same,"Plant response rating, Corn",[5]; [15],30
same,"Plant response rating, Corn",[5]; [16],40
same,"Plant response rating, Corn",[5]; [17],0
same,"Plant response rating, Corn",[5]; [18],20
same,"Plant response rating, Wheat",[6]; [15],0
same,"Plant response rating, Wheat",[6]; [16],0
same,"Plant response rating, Wheat",[6]; [17],0
same,"Plant response rating, Wheat",[6]; [19],20
same,"Plant response rating, Velvetleaf",[7]; [15],100
same,"Plant response rating, Velvetleaf",[7]; [16],100
same,"Plant response rating, Velvetleaf",[7]; [17],90
same,"Plant response rating, Velvetleaf",[7]; [19],100
same,"Plant response rating, Pigweed",[8]; [15],100
same,"Plant response rating, Pigweed",[8]; [16],100
same,"Plant response rating, Pigweed",[8]; [17],70
same,"Plant response rating, Pigweed",[8]; [18],100
same,"Plant response rating, Crabgrass, Large",[9]; [15],70
same,"Plant response rating, Crabgrass, Large",[9]; [16],90
same,"Plant response rating, Crabgrass, Large",[9]; [17],50
same,"Plant response rating, Crabgrass, Large",[9]; [18],100
same,"Plant response rating, Barnyardgrass",[10]; [15],70
same,"Plant response rating, Barnyardgrass",[10]; [16],100
same,"Plant response rating, Barnyardgrass",[10]; [17],20
same,"Plant response rating, Barnyardgrass",[10]; [18],90
same,"Plant response rating, Morningglory",[11]; [15],90
same,"Plant response rating, Morningglory",[11]; [16],90
same,"Plant response rating, Morningglory",[11]; [17],0
same,"Plant response rating, Morningglory",[11]; [18],80
same,"Plant response rating, Foxtail, Giant",[12]; [15],60
same,"Plant response rating, Foxtail, Giant",[12]; [16],80
same,"Plant response rating, Foxtail, Giant",[12]; [17],30
same,"Plant response rating, Foxtail, Giant",[12]; [18],70
CCc1ccc(-n2c(-c3cc(F)cc(F)c3)ncc(C(=O)C3=C(O)CCCC3=O)c2=O)cc1 [Compound 158],"Plant response rating, Flood, Ducksalad",[1],100
same,"Plant response rating, Ducksalad",[1]; [13],75
same,"Plant response rating, Ducksalad",[1]; [14],100
same,Ducksalad plant response rating,[1],50
same,"Plant response rating, Flood, Sedge, Umbrella",[2],100
same,"Plant response rating, Sedge, Umbrella",[2]; [13],85
same,"Plant response rating, Sedge, Umbrella",[2]; [14],100
same,"Sedge, Umbrella plant response rating",[2],70
same,"Plant response rating, Flood, Rice",[3],85
same,"Plant response rating, Rice",[3]; [13],30
same,"Plant response rating, Rice",[3]; [14],40
same,Rice plant response rating,[3],20
same,"Plant response rating, Flood, Barnyardgrass",[4],60
same,"Plant response rating, Barnyardgrass",[4]; [13],20
same,"Plant response rating, Barnyardgrass",[4]; [14],20
same,Barnyardgrass plant response rating,[4],20
same,"Plant response rating, Corn",[5]; [15],10
same,Corn plant response rating,[5]; [20],50
same,"Plant response rating, Corn",[5]; [17],0
same,"Plant response rating, Corn",[5]; [19],20
same,"Plant response rating, Wheat",[6]; [15],0
same,Wheat plant response rating,[6]; [20],50
same,"Plant response rating, Wheat",[6]; [17],0
same,"Plant response rating, Wheat",[6]; [19],10
same,"Plant response rating, Velvetleaf",[7]; [15],100
same,Velvetleaf plant response rating,[7]; [20],100
same,"Plant response rating, Velvetleaf",[7]; [17],50
same,"Plant response rating, Velvetleaf",[7]; [19],80
same,"Plant response rating, Pigweed",[8]; [15],100
same,Pigweed plant response rating,[8]; [20],100
same,"Plant response rating, Pigweed",[8]; [17],100
same,"Plant response rating, Pigweed",[8]; [19],100
same,"Plant response rating, Crabgrass, Large",[9]; [15],70
same,"Crabgrass, Large plant response rating",[9]; [20],100
same,"Plant response rating, Crabgrass, Large",[9]; [17],70
same,"Plant response rating, Crabgrass, Large",[9]; [19],100
same,"Plant response rating, Barnyardgrass",[10]; [15],90
same,Barnyardgrass plant response rating,[10]; [20],90
same,"Plant response rating, Barnyardgrass",[10]; [17],20
same,"Plant response rating, Barnyardgrass",[10]; [19],80
same,"Plant response rating, Morningglory",[11]; [15],70
same,Morningglory plant response rating,[11]; [20],100
same,"Plant response rating, Morningglory",[11]; [17],0
same,"Plant response rating, Morningglory",[11]; [19],80
same,"Plant response rating, Foxtail, Giant",[12]; [15],70
same,"Foxtail, Giant plant response rating",[12]; [20],90
same,"Plant response rating, Foxtail, Giant",[12]; [17],10
same,"Plant response rating, Foxtail, Giant",[12]; [19],80
